Columns and labels:
[1] = Stability in an aqueous solution of a formulation containing sodium bicarbonate (HPLC); assay type: physicochemical; conditions: for reduction of amount of Compound A: 6 hours at 25° C.
Experimental: Multiple vials were prepared and amounts of Compound A and sodium bicarbonate indicated in Table 5 were weighed and filled in each vial. Thereto was added physiological saline (100 ml). Amounts of Compound A and its degradation, Compounds B and C were measured just after dissolution and after preservation for 6 hours at 25° C.
• column: SUMIPAX ODS-A212 (silica gel binding with octadecyl group, • particle size: 5 μm; 6.0 mmφ×15 cm) • detector: ultraviolet spectrophotometer (wavelength: 220 nm) • column temperature: constant temperature around at 25° C. • mobile phase: A solution; 5 mmol/L phosphate buffer (pH7) and acetonitrile (300:23), B solution: acetonitrile • flow rate: 1.0 mL/min. • gradient condition: as shown in Table 6
The numbers described in columns of “just after dissolution” and “after preservation for 6 hours at 25° C.” on Table 8 show area % per total peaks which appear until 55 minutes under the above HPLC conditions.

[2] = Stability in an aqueous solution formulation containing sodium carbonate (HPLC); assay type: physicochemical
Experimental: Multiple vials were prepared, and Compound A and sodium carbonate in amounts indicated in Table 9 were weighed and put in each vial. A physiological saline (100 ml) was added to each vial, amounts Compound A and its degradation, Compounds B and C were measured just after dissolving and after preserving for 6 hours at 25° C.
HPLC was Measured Under the Same Conditions as Test Example 1.
The numbers described in columns of “just after dissolution” and “after preservation for 6 hours at 25° C.” on Table 10 show area % per total peaks which appear until 55 minutes under the above HPLC conditions.

[3] = Comp. A 0.5 g/vial + sodium bicarbonate 0.0 mg/vial in physiological saline 100 ml
[4] = Comp. A 0.5 g/vial + sodium bicarbonate 1.0 mg/vial in physiological saline 100 ml
[5] = Comp. A 0.5 g/vial + sodium bicarbonate 2.5 mg/vial in physiological saline 100 ml
[6] = Comp. A 0.5 g/vial + sodium bicarbonate 5.0 mg/vial in physiological saline 100 ml
[7] = Comp. A 0.5 g/vial + sodium bicarbonate 10 mg/vial in physiological saline 100 ml
[8] = Comp. A 0.5 g/vial + sodium bicarbonate 15 mg/vial in physiological saline 100 ml
[9] = Comp. A 0.5 g/vial + sodium bicarbonate 20 mg/vial in physiological saline 100 ml
[10] = Comp. A 0.5 g/vial + sodium bicarbonate 50 mg/vial in physiological saline 100 ml
[11] = Comp. A 0.5 g/vial + sodium bicarbonate 100 mg/vial in physiological saline 100 ml
[12] = Comp. A 0.5 g/vial + sodium carbonate 0.0 mg/vial in physiological saline 100 ml
[13] = Comp. A 0.5 g/vial + sodium carbonate 1.0 mg/vial in physiological saline 100 ml
[14] = Comp. A 0.5 g/vial + sodium carbonate 1.5 mg/vial in physiological saline 100 ml
[15] = Comp. A 0.5 g/vial + sodium carbonate 2.0 mg/vial in physiological saline 100 ml
[16] = Comp. A 0.5 g/vial + sodium carbonate 2.5 mg/vial in physiological saline 100 ml
[17] = Comp. A 0.5 g/vial + sodium carbonate 3.0 mg/vial in physiological saline 100 ml
[18] = Comp. A 0.5 g/vial + sodium carbonate 3.5 mg/vial in physiological saline 100 ml
[19] = Comp. A 0.5 g/vial + sodium carbonate 4.0 mg/vial in physiological saline 100 ml
[20] = Comp. A 0.5 g/vial + sodium carbonate 5.0 mg/vial in physiological saline 100 ml

Comp. A after preservation for 6 hrs. at 25° C. [1, 3]: 95.8 area %
Comp. A just after dissolution [1, 3]: 98.8 area %
Comp. B after preservation for 6 hrs. at 25° C. [1, 3]: 3.0 area %
Comp. B just after dissolution [1, 3]: 0.7 area %
Comp. C after preservation for 6 hrs. at 25° C. [1, 3]: 0.5 area %
Comp. C just after dissolution [1, 3]: 0.0 area %
Comp. A after preservation for 6 hrs. at 25° C. [1, 4]: 96.6 area %
Comp. A just after dissolution [1, 4]: 98.9 area %
Comp. B after preservation for 6 hrs. at 25° C. [1, 4]: 2.7 area %
Comp. B just after dissolution [1, 4]: 0.7 area %
Comp. C after preservation for 6 hrs. at 25° C. [1, 4]: 0.2 area %
Comp. C just after dissolution [1, 4]: 0.0 area %
Comp. A after preservation for 6 hrs. at 25° C. [1, 5]: 96.6 area %
Comp. A just after dissolution [1, 5]: 98.9 area %
Comp. B after preservation for 6 hrs. at 25° C. [1, 5]: 2.8 area %
Comp. B just after dissolution [1, 5]: 0.7 area %
Comp. C after preservation for 6 hrs. at 25° C. [1, 5]: ≤ 0.1 area %
Comp. C just after dissolution [1, 5]: 0.0 area %
Comp. C after preservation for 6 hrs. at 25° C. ([1]; Comp. A 0.5 g/vial + sodium bicarbonate 2.5 mg/vial in physiological saline 100 ml, listed as Comp. A): 0.0 area %
Comp. A after preservation for 6 hrs. at 25° C. [1, 6]: 96.3 area %
Comp. A just after dissolution [1, 6]: 98.9 area %
Comp. B after preservation for 6 hrs. at 25° C. [1, 6]: 3.0 area %
Comp. B just after dissolution [1, 6]: 0.6 area %
Comp. C after preservation for 6 hrs. at 25° C. [1, 6]: 0.0 area %
Comp. C just after dissolution [1, 6]: 0.0 area %
Comp. A after preservation for 6 hrs. at 25° C. [1, 7]: 95.9 area %
Comp. A just after dissolution [1, 7]: 98.9 area %
Comp. B after preservation for 6 hrs. at 25° C. [1, 7]: 3.5 area %
Comp. B just after dissolution [1, 7]: 0.7 area %
Comp. C after preservation for 6 hrs. at 25° C. [1, 7]: 0.0 area %
Comp. C just after dissolution [1, 7]: 0.0 area %
Comp. A after preservation for 6 hrs. at 25° C. [1, 8]: 95.4 area %
Comp. A just after dissolution [1, 8]: 98.9 area %
Comp. B after preservation for 6 hrs. at 25° C. [1, 8]: 3.9 area %
Comp. B just after dissolution [1, 8]: 0.6 area %
Comp. C after preservation for 6 hrs. at 25° C. [1, 8]: 0.0 area %
Comp. C just after dissolution [1, 8]: 0.0 area %
Comp. A after preservation for 6 hrs. at 25° C. [1, 9]: 95.2 area %
Comp. A just after dissolution [1, 9]: 98.8 area %
Comp. B after preservation for 6 hrs. at 25° C. [1, 9]: 4.1 area %
Comp. B just after dissolution [1, 9]: 0.6 area %
Comp. C after preservation for 6 hrs. at 25° C. [1, 9]: 0.0 area %
Comp. C just after dissolution [1, 9]: 0.0 area %
Comp. A after preservation for 6 hrs. at 25° C. [1, 10]: 93.5 area %
Comp. A just after dissolution [1, 10]: 98.6 area %
Comp. B after preservation for 6 hrs. at 25° C. [1, 10]: 5.5 area %
Comp. B just after dissolution [1, 10]: 0.7 area %
Comp. C after preservation for 6 hrs. at 25° C. [1, 10]: 0.0 area %
Comp. C just after dissolution [1, 10]: 0.0 area %
Comp. A after preservation for 6 hrs. at 25° C. [1, 11]: 92.4 area %
Comp. A just after dissolution [1, 11]: 98.9 area %
Comp. B after preservation for 6 hrs. at 25° C. [1, 11]: 6.6 area %
Comp. B just after dissolution [1, 11]: 0.6 area %
Comp. C after preservation for 6 hrs. at 25° C. [1, 11]: 0.0 area %
Comp. C just after dissolution [1, 11]: 0.0 area %
reduction of amount of Compound A ([1]; sodium bicarbonate increased to 20 mg from 15 mg per Compound A 500 mg): 0.2%
reduction of amount of Compound A ([1]; sodium bicarbonate increased to 50 mg from 20 mg per Compound A 500 mg): 1.7%
Comp. A after preservation for 6 hrs. 25° C. [2, 12]: 96.3 area %
Comp. A just after dissolution [2, 12]: 99.0 area %
Comp. B after preservation for 6 hrs. 25° C. [2, 12]: 2.6 area %
Comp. B just after dissolution [2, 12]: 0.5 area %
Comp. C after preservation for 6 hrs. 25° C. [2, 12]: 0.4 area %
Comp. C just after dissolution [2, 12]: 0.0 area %
Comp. A after preservation for 6 hrs. 25° C. [2, 13]: 96.7 area %
Comp. A just after dissolution [2, 13]: 99.0 area %
Comp. B after preservation for 6 hrs. 25° C. [2, 13]: 2.6 area %
Comp. B just after dissolution [2, 13]: 0.6 area %
Comp. C after preservation for 6 hrs. 25° C. [2, 13]: 0.2 area %
Comp. C just after dissolution [2, 13]: 0.0 area %
Comp. A after preservation for 6 hrs. 25° C. [2, 14]: 96.5 area %
Comp. A just after dissolution [2, 14]: 98.9 area %
Comp. B after preservation for 6 hrs. 25° C. [2, 14]: 2.8 area %
Comp. B just after dissolution [2, 14]: 0.5 area %
Comp. C after preservation for 6 hrs. 25° C. [2, 14]: ≤ 0.1 area %
Comp. C just after dissolution [2, 14]: 0.0 area %
Comp. C after preservation for 6 hrs. 25° C. ([2]; Comp. A 0.5 g/vial + sodium carbonate 1.5 mg/vial in physiological saline 100 ml, listed as Comp. A): 0.0 area %
Comp. A after preservation for 6 hrs. 25° C. [2, 15]: 96.2 area %
Comp. A just after dissolution [2, 15]: 99.0 area %
Comp. B after preservation for 6 hrs. 25° C. [2, 15]: 3.0 area %
Comp. B just after dissolution [2, 15]: 0.5 area %
Comp. C after preservation for 6 hrs. 25° C. [2, 15]: 0.0 area %
Comp. C just after dissolution [2, 15]: 0.0 area %
Comp. A after preservation for 6 hrs. 25° C. [2, 16]: 96.0 area %
Comp. A just after dissolution [2, 16]: 98.9 area %
Comp. B after preservation for 6 hrs. 25° C. [2, 16]: 3.2 area %
Comp. B just after dissolution [2, 16]: 0.5 area %
Comp. C after preservation for 6 hrs. 25° C. [2, 16]: 0.0 area %
Comp. C just after dissolution [2, 16]: 0.0 area %
Comp. A after preservation for 6 hrs. 25° C. [2, 17]: 95.7 area %
Comp. A just after dissolution [2, 17]: 99.0 area %
Comp. B after preservation for 6 hrs. 25° C. [2, 17]: 3.6 area %
Comp. B just after dissolution [2, 17]: 0.5 area %
Comp. C after preservation for 6 hrs. 25° C. [2, 17]: 0.0 area %
Comp. C just after dissolution [2, 17]: 0.0 area %
Comp. A after preservation for 6 hrs. 25° C. [2, 18]: 95.4 area %
Comp. A just after dissolution [2, 18]: 98.9 area %
Comp. B after preservation for 6 hrs. 25° C. [2, 18]: 3.8 area %
Comp. B just after dissolution [2, 18]: 0.5 area %
Comp. C after preservation for 6 hrs. 25° C. [2, 18]: 0.0 area %
Comp. C just after dissolution [2, 18]: 0.0 area %
Comp. A after preservation for 6 hrs. 25° C. [2, 19]: 95.1 area %
Comp. A just after dissolution [2, 19]: 99.0 area %
Comp. B after preservation for 6 hrs. 25° C. [2, 19]: 4.1 area %
Comp. B just after dissolution [2, 19]: 0.5 area %
Comp. C after preservation for 6 hrs. 25° C. [2, 19]: 0.0 area %
Comp. C just after dissolution [2, 19]: 0.0 area %
Comp. A after preservation for 6 hrs. 25° C. [2, 20]: 94.8 area %
Comp. A just after dissolution [2, 20]: 98.9 area %
Comp. B after preservation for 6 hrs. 25° C. [2, 20]: 4.5 area %
Comp. B just after dissolution [2, 20]: 0.6 area %
Comp. C after preservation for 6 hrs. 25° C. [2, 20]: 0.0 area %
Comp. C just after dissolution [2, 20]: 0.0 area %
reduction of amount of Compound A ([2]; sodium carbonate increased to 5 mg from 2 mg per Compound A 500 mg, 6 hours at 25° C.): 1.4%
SMILES: C[C@H]1C=C(c2csc(SC3=C(C(=O)O)N4C(=O)[C@H]([C@@H](C)O)[C@H]4[C@H]3C)n2)CN1 [Compound A, (4R,5S,6S)-6-[(1R)-1-hydroxyethyl]-4-methyl-3-({4-[(5S)-5-methyl-2,5-dihydro-1H-pyrrol-3-yl]-1,3-thiazol-2-yl}sulfanyl)-7-oxo-1-azabicyclo[3.2.0]hept-2-ene-2-carboxylic acid]

Reference: patent US20100256107A1, “PREPARATION COMPOSITION” (Dainippon Sumitomo Pharma Co., Ltd., priority 2007, published 2010)
